Data reported in patent US20020061836A1, “Methods for altering SXR activation using peptide mimetic HIV protease inhibitor SXR ligands” (priority 2000, published 2002).

Assays:
[1] = biological target: human ERα (Homo sapiens, UniProt P03372); conditions: 10 μM paclitaxel
[2] = biological target: T1, human LXRα (Homo sapiens, UniProt Q13133); assay: Nuclear receptor specificity transfection assay; assay type: cell-based; conditions: 10 μM paclitaxel
T1 construct: expressed in transfected cells; host or cells: CV-1
T1 sequence (Q13133 1-447): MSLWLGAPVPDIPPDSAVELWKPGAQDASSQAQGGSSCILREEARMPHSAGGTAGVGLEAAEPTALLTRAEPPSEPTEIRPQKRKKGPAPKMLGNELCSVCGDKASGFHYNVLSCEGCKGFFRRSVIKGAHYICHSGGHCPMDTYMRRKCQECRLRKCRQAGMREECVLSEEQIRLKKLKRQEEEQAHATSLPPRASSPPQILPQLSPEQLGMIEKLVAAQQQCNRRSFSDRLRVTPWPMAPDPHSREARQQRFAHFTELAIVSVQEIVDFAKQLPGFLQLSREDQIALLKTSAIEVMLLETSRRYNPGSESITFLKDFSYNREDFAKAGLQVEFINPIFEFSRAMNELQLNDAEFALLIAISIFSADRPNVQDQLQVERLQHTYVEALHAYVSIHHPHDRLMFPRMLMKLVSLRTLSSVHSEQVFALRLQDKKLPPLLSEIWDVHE

[3] = system: thyroid hormone receptor β (TRβ); conditions: 10 μM paclitaxel
[4] = system: MDR1 protein (P-glycoprotein); assay: Western analysis with P-glycoprotein antibody of LS180 cells; assay type: cell-based, human; conditions: 10 μM, 48 hours
Experimental: Western Blotting was performed according to the following methods. Human LS180 cells in log phase growth were treated for 48 hours with the compounds indicated in the pertinent Figures. The cells were harvested, washed with phosphate buffered saline (PBS) and homogenized using 12-15 strokes of a Wheaton teflon-glass homogenizer. Cell debris was removed by centrifugation at 1500×g for 10 minutes, and the resulting supernatant was sedimented at 150,000×g for one hour at 4° C. to pellet the membranes. The membrane pellets were resuspended in PBS containing 1 mM phenylmethylsulfonyl fluoride and protein concentrations were determined according to standard prior art methods. […] The membranes were blocked with 5% non-fat dry milk in PBS with 0.1% Tween-20 (PBS-T) before incubation with a 1:500 dilution of P-glycoprotein antibody (Ab-1, Oncogene Research Products, Boston, Mass.) in blocking buffer for six hours at room temperature. Following several washes with PBS-T, membranes were incubated with a 1:1000 dilution of horseradish peroxidase-conjugated secondary anti-rabbit IgG antibodies. (Santa Cruz Biotechnology, Santa Cruz, Calif.) in blocking buffer for one hour at room temperature.

[5] = biological target: T2, human RARα (Homo sapiens, UniProt P10276); assay: Nuclear receptor specificity transfection assay; assay type: cell-based; conditions: 10 μM paclitaxel
T2 construct: expressed in transfected cells; host or cells: CV-1

[6] = biological target: T3, mouse PPARα (Mus musculus, UniProt P23204); assay: Nuclear receptor specificity transfection assay; assay type: cell-based; conditions: 10 μM paclitaxel
T3 construct: expressed in transfected cells; host or cells: CV-1
T3 sequence (P23204 1-468): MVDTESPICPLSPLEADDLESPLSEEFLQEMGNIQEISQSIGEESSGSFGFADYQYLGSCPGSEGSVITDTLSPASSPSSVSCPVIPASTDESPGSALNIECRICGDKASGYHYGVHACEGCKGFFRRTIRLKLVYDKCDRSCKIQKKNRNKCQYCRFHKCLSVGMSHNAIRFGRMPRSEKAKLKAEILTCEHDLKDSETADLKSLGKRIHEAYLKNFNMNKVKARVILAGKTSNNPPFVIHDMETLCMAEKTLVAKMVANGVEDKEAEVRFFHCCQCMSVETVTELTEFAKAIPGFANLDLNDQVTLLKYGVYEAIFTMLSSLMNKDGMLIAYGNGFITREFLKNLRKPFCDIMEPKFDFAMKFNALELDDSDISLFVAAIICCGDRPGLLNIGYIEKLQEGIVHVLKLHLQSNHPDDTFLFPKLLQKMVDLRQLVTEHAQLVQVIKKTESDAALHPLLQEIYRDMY

[7] = biological target: T4, mouse PPARγ (Mus musculus, UniProt P37238); assay: Nuclear receptor specificity transfection assay; assay type: cell-based; conditions: 10 μM paclitaxel
T4 construct: expressed in transfected cells; host or cells: CV-1

[8] = system: CV-1 cells; assay: Potential cytotoxic effects at the concentrations and treatment times used; conditions: at the indicated concentrations and treatment times
[9] = system: CYP3A4 and CYP2C8; conditions: read-out: Km for degradation of paclitaxel by CYP3A4 and CYP2C8; cited from earlier work
[10] = biological target: T5, human RXRα ligand binding domain (Homo sapiens, UniProt P19793); assay: Gal-L-RXR Gal4 reporter transient transfection assay in CV-1 cells; assay type: cell-based; conditions: 10 μM paclitaxel
T5 construct: expressed in transfected cells; host or cells: CV-1
T5 sequence (P19793 203-462): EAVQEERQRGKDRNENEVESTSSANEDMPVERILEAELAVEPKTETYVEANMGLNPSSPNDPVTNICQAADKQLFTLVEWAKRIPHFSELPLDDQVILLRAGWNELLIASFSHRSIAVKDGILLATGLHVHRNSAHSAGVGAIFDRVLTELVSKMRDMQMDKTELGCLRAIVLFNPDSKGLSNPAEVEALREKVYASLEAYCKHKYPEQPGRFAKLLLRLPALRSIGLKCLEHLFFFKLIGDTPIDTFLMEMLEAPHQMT
Excerpt: (§1) The Gal4 reporter activity was normalized to the internal β-galactosidase control and the data plotted as fold activation relative to untreated cells. All transfections contained the Gal4 reporter and a β-galactosidase expression vector as an internal control.

[11] = biological target: T6, human SXR ligand binding domain (Homo sapiens, UniProt O75469); assay: Gal-L-SXR (Gal-SXR) Gal4 reporter transient transfection assay in CV-1 cells
T6 sequence (O75469 107-434 limits assumed): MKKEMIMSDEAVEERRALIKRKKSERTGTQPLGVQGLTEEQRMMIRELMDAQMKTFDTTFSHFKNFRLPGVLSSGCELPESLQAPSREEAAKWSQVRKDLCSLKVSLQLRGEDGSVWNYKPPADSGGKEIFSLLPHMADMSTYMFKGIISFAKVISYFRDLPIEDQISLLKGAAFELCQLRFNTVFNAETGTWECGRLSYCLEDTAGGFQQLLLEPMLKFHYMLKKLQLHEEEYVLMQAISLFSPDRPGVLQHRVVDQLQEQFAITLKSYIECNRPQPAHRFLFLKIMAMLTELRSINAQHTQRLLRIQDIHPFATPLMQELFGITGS
Excerpt: Use of a standard model heterologous cell system to reconstitute SXR agonist and antagonist responsiveness allows SXR activity to be monitored in the absence of the metabolic events which may obscure the process being tested. Any suitable heterologous cell system may be used to test the activation of potential or known SXR nuclear receptor ligands, as long as the cells are capable of being transiently transfected with the appropriate DNA which expresses receptors, reporter genes, response elements, and the like. Cells which constitutively express one or more of the necessary genes may be used as well. Cell systems that are suitable for the transient expression of mammalian genes and which are amenable to maintenance in culture are well known to those skilled in the art. […] Suitable reporter gene constructs are well known to skilled workers in the fields of biochemistry and molecular biology. Activity of the reporter gene can be conveniently normalized to the internal control and the data plotted as fold activation relative to untreated cells.
as §1
Izbicka et al., Ann. Oncol.
Gal-PXR containing the ligand binding domain of mouse PXR (#AF031814) was obtained from Bruce Blumberg.
Transient Transffection Assays—CV-1 cells were grown and transfected as described.

[12] = biological target: T7, FXR (Homo sapiens, UniProt Q96RI1); assay: Nuclear receptor specificity transfection assay; assay type: cell-based; conditions: 10 μM paclitaxel
T7 construct: expressed in transfected cells; host or cells: CV-1
T7 sequence (Q96RI1 whole entry, species assumed): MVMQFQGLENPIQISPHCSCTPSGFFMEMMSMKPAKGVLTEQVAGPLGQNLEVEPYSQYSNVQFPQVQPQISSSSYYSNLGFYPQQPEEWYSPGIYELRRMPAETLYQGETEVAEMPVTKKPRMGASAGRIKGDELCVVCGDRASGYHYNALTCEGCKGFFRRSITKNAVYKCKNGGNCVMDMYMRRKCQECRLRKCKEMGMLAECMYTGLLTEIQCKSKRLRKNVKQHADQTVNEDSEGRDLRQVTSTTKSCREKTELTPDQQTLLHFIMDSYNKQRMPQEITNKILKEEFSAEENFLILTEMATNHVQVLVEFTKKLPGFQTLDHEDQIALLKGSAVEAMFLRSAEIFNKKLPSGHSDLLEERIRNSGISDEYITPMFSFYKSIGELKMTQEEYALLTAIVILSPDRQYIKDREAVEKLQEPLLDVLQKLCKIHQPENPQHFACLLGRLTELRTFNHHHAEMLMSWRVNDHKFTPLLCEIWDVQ

Sequence of human ERα (P03372 whole entry): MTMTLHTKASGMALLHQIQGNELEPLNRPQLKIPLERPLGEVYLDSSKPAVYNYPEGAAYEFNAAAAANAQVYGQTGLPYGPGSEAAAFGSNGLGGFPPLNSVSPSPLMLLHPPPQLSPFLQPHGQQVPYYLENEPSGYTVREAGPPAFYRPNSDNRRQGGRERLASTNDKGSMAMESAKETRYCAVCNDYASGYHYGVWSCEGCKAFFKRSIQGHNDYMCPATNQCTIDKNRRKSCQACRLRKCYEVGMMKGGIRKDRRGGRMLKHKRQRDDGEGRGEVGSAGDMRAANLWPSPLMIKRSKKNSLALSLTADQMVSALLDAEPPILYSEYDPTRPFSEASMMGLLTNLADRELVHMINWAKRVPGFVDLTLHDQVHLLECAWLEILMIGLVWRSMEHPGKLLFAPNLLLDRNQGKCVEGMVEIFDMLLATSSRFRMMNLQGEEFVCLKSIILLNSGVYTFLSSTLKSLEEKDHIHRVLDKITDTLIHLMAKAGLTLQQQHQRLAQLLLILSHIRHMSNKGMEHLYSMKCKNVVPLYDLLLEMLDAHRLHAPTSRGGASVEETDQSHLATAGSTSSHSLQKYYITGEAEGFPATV
T2 sequence (P10276 whole entry): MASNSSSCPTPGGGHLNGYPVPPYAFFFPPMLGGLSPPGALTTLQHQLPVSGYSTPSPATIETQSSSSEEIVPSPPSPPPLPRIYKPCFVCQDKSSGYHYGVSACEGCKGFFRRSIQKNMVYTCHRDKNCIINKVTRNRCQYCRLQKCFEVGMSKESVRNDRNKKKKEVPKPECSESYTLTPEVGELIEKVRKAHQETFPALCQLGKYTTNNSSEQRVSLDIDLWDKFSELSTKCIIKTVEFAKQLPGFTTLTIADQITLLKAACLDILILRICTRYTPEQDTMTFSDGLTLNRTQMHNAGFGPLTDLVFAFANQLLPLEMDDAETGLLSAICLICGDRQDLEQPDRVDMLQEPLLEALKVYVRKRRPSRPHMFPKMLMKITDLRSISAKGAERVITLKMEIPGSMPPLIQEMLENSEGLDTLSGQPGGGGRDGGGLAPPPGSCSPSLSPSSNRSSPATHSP
T4 sequence (P37238 whole entry): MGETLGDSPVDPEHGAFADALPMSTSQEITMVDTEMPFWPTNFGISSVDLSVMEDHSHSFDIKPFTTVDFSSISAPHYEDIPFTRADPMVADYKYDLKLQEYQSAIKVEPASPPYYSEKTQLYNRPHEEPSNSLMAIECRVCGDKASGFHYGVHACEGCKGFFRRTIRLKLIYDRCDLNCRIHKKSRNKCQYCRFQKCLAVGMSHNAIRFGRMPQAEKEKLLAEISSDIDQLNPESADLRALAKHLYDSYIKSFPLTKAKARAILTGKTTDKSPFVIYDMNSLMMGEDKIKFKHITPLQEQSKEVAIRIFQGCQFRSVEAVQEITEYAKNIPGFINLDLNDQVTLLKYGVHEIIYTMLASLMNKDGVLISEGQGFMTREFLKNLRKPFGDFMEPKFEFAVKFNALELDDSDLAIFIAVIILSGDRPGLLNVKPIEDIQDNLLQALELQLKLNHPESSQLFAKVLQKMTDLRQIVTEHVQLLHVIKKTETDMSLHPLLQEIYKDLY

Which “effect on ERα reporter activity” value [1] does the source give for `CC(=O)O[C@H]1C(=O)[C@@]2(C)[C@H]([C@H](OC(=O)c3ccccc3)[C@]3(O)C[C@H](OC(=O)[C@H](O)[C@@H](NC(=O)c4ccccc4)c4ccccc4)C(C)=C1C3(C)C)[C@]1(OC(C)=O)CO[C@@H]1C[C@@H]2O` [paclitaxel] here?
Its value is “no effect”.

And the “effect on LXRα reporter activity” value [2]?
Its value is “no effect”.

And the “effect on TRβ reporter activity” value [3]?
Its value is “no effect”.

And the “induction of MDR1 protein (P-glycoprotein) expression” value [4]?
The value was “much more effective than docetaxel”.

What about the “effect on RARα reporter activity” value [5] of the same compound?
Its value is “no effect”.

And the “effect on PPARα reporter activity” value [6]?
The value was “no effect”.

And the “effect on PPARγ reporter activity” value [7]?
Its value is “no effect”.

And the potential cytotoxic effects [8]?
Its potential cytotoxic effects is “minimal”.

And the Km [9]?
Its Km is roughly 10 µM.

What about the “effect on RXR reporter activity” value [10] of the same compound?
The value was “no effect”.

What about the EC50 [11] of the same compound?
The EC50 was roughly 5 µM.

And the “effect on FXR reporter activity” value [12]?
Its value is “no effect”.
